“And” between values parts separate entries of the source, which are not always exact repeats. Equal values may be shown once.
Experiments:
Assay in all cases: Kinase inhibition screen, cell-free 33P ATP assay at 10 μM
Format in all cases: biochemical
[1] = molecular target: T1, 140 purified human kinases (Homo sapiens, UniProt O14920); conditions: IKKb; for % Activity inhibition Mean / % Activity inhibition Run 1 / % Activity inhibition Run 2 / % Activity remaining Run 1 / % Activity remaining Run 2: 10 µM
T1 sequence (O14920 1-756): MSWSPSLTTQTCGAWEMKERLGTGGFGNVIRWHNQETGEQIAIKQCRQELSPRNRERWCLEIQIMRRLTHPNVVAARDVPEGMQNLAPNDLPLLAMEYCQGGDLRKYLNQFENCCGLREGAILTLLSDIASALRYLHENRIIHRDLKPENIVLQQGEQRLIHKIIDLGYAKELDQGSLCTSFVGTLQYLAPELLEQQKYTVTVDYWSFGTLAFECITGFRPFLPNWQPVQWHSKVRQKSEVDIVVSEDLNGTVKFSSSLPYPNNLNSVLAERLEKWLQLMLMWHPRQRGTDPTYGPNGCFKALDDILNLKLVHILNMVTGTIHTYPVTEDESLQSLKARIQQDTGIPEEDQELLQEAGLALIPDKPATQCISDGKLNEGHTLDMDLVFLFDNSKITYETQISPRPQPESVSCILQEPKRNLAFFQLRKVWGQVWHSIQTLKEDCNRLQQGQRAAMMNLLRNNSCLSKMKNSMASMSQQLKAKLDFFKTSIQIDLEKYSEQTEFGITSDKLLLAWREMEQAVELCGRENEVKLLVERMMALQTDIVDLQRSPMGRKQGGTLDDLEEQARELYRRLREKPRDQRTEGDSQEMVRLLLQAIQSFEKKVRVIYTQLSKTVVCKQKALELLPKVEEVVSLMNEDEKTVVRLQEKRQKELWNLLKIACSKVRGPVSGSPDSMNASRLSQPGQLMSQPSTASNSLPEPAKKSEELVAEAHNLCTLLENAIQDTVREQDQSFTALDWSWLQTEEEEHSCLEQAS
Procedure, shortened: (§1)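 Each complex tested in duplicate at 10 μM; cell-free radiometric assay using ^33P ATP on purified enzymes. Hits mapped by HGNC symbol onto the kinome tree.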

[2] = molecular target: 140 purified human kinases (Homo sapiens, UniProt Q14012); conditions: for % Activity inhibition Mean / % Activity inhibition Run 1 / % Activity inhibition Run 2 / % Activity remaining Run 1 / % Activity remaining Run 2: 10 µM
Procedure, shortened: as §1

[3] = molecular target: 140 purified human kinases (Homo sapiens, UniProt Q15569)
Procedure, shortened: as §1

[4] = molecular target: T2, 140 purified human kinases (Homo sapiens, UniProt Q16832)
T2 sequence (Q16832 22-855): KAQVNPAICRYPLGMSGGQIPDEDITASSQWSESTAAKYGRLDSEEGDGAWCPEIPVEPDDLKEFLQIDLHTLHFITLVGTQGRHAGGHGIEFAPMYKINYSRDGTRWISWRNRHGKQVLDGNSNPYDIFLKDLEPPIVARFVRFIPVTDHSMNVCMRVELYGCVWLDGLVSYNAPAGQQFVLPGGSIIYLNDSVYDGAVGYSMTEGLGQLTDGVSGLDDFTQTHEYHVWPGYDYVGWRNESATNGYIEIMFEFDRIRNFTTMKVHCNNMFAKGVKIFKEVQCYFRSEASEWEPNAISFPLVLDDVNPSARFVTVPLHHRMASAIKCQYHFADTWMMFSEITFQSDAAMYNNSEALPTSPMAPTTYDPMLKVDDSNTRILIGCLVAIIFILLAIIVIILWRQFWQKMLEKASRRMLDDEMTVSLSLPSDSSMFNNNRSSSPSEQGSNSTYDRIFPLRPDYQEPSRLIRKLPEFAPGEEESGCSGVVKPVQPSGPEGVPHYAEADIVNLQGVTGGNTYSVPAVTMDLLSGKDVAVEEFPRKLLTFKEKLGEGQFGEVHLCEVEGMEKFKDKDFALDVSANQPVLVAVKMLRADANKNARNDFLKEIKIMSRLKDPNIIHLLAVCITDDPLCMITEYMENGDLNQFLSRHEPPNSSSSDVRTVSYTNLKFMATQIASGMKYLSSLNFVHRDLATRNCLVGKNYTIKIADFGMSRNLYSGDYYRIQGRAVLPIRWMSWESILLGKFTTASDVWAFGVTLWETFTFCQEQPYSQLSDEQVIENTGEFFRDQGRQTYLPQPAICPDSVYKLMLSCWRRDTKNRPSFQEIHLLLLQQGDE
Procedure, shortened: as §1

Sequence of 140 purified human kinases (Homo sapiens, UniProt Q14012) (Q14012 whole entry): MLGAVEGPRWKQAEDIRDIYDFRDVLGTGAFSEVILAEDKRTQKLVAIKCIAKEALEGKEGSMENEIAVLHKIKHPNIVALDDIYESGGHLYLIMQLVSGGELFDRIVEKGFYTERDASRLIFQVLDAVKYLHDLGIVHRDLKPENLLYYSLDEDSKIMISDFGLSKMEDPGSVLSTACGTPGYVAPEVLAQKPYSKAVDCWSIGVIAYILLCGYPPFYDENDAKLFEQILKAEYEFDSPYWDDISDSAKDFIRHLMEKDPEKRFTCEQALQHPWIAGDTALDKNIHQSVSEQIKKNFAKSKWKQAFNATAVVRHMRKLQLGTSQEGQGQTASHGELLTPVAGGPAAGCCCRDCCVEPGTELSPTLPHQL
Sequence of 140 purified human kinases (Homo sapiens, UniProt Q15569) (Q15569 whole entry): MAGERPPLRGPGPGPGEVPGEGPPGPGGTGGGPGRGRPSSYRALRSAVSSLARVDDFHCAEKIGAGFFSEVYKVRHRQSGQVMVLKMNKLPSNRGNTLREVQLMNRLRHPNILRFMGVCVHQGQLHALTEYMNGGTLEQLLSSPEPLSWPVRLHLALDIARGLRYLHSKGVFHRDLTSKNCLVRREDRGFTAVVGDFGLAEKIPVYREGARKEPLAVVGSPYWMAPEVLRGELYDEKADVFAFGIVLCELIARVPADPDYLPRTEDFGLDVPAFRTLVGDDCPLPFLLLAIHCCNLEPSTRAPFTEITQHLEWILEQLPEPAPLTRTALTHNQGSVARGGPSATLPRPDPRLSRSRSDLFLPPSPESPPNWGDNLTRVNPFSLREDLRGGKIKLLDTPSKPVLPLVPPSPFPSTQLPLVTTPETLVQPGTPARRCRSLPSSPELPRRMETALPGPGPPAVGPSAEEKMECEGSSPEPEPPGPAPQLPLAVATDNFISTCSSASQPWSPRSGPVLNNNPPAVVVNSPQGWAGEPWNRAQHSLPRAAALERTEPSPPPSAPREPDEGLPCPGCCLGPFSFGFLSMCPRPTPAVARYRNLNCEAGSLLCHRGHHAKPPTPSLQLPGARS

## [Cu+2].[Cu+2].[Cu+2].c1ccc(-c2csc(NCCN(CCNc3nc(-c4ccccn4)cs3)CCNc3nc(-c4ccccn4)cs3)n2)nc1.c1ccc(-c2csc(NCCN(CCNc3nc(-c4ccccn4)cs3)CCNc3nc(-c4ccccn4)cs3)n2)nc1 [[L2Cu3]6+]
[1]
  % Inhibition Run 1: 92.1%
  % Inhibition Run 2: 92.5%
  % Inhibition, Mean: 92%
  mean % activity: 8%
  % Activity inhibition Mean: 92.3%
  % Activity inhibition Run 1: 92.1%
  % Activity inhibition Run 2: 92.5%
  % Activity remaining Run 1: 7.90%
  % Activity remaining Run 2: 7.50%
[1]; Run 1
  % activity: 7.9%
[1]; Run 2
  % activity: 7.5%
[2]; CAMK1
  % Inhibition Run 1: 94.9%
  % Inhibition Run 2: 96.1%
  % Inhibition, Mean: 96%
  mean % activity: 4.5%
  % Activity inhibition Mean: 95.5%
  % Activity inhibition Run 1: 94.9%
  % Activity inhibition Run 2: 96.1%
  % Activity remaining Run 1: 5.10%
  % Activity remaining Run 2: 3.90%
[2]; CAMK1, Run 1
  % activity: 5.1%
[2]; CAMK1, Run 2
  % activity: 3.9%
[3]; TESK1
  % Inhibition Run 1: 16.1%
  % Inhibition Run 2: -16.2%
  % Inhibition, Mean: -0.05%
  mean % activity: 100%
[3]; TESK1, Run 1
  % activity: 83.9%
[3]; TESK1, Run 2
  % activity: 116.2%
[4]; DDR2
  % Inhibition Run 1: 21.7%
  % Inhibition Run 2: 11.4%
  % Inhibition, Mean: 17%
  mean % activity: 83%
[4]; DDR2, Run 1
  % activity: 78.3%
[4]; DDR2, Run 2
  % activity: 88.6%

## CC(=O)[O-].CC(=O)[O-].CC(=O)[O-].CC(=O)[O-].CC(=O)[O-].CC(=O)[O-].[Zn+2].[Zn+2].[Zn+2].c1ccc(-c2csc(NCCN(CCNc3nc(-c4ccccn4)cs3)CCNc3nc(-c4ccccn4)cs3)n2)nc1.c1ccc(-c2csc(NCCN(CCNc3nc(-c4ccccn4)cs3)CCNc3nc(-c4ccccn4)cs3)n2)nc1 [[L2Zn3]6+]
[1]
  % Inhibition, Mean: 92%
  % Inhibition, Run 1 / Run 2: 94% and 90%
  mean % activity: 8%
  % Activity inhibition Mean: 92.0%
  % Activity inhibition Run 1: 94%
  % Activity inhibition Run 2: 90%
  % Activity remaining Run 1: 6%
  % Activity remaining Run 2: 10%
[1]; duplicate runs
  % activity: 6% and 10%
[2]; CAMK1
  % Inhibition, Mean: 96%
  % Inhibition, Run 1 / Run 2: 94% and 98%
  mean % activity: 3.6%
  % Activity inhibition Mean: 96.0%
  % Activity inhibition Run 1: 94%
  % Activity inhibition Run 2: 98%
  % Activity remaining Run 1: 6%
  % Activity remaining Run 2: 2%
[2]; CAMK1, duplicate runs
  % activity: 5.6% and 1.6%
[3]; TESK1
  % Inhibition, Mean: 25%
  % Inhibition, Run 1 / Run 2: 34% and 17%
  mean % activity: 75%
[3]; TESK1, duplicate runs
  % activity: 66% and 83%
[4]; DDR2
  % Inhibition, Mean: 19%
  % Inhibition, Run 1 / Run 2: 23% and 15%
  mean % activity: 81%
[4]; DDR2, duplicate runs
  % activity: 77% and 85%

— PMC8222254, “Self-assembly of an anion receptor with metal-dependent kinase inhibition and potent in vitro anti-cancer properties” (Nature Communications, 2021)
